# Experimental data from patent publication US6787550B1, “Indole derivatives and their use for the treatment of osteoporosis amongst other applications” (Nikem Research S.r.l., priority 1999, dated 2004).
# Tested on: osteoclast proton pump
# Conditions: avian osteoclast membrane vesicles; literature background; cited from earlier work
row,Structure (SMILES),inhibition of proton transport
1,"CCN1C(=O)C=CC1=O [N-ethylmaleimide (NEM), N-ethylmaleimide]",inhibited
2,C[C@@H]1O[C@@H](O[C@H]2C[C@@H](O)[C@]3(CO)[C@H]4[C@H](O)C[C@]5(C)[C@@H](C6=CC(=O)OC6)CC[C@]5(O)[C@@H]4CC[C@]3(O)C2)[C@H](O)[C@H](O)[C@H]1O [ouabain],not inhibited
3,CO/C1=C\C(C)=C\[C@@H](C)[C@@H](O)[C@@H](C)C/C(C)=C/C=C/[C@H](OC)[C@@H]([C@@H](C)[C@@H](O)[C@H](C)[C@@]2(O)C[C@@H](O)[C@H](C)[C@@H](C(C)C)O2)OC1=O [bafilomycin A1],inhibited
4,Cc1nc2c(OCc3ccccc3)cccn2c1CC#N [SCH 28080],not inhibited
5,[Na+].[Na+].[Na+].[O]=[V]([O-])([O-])[O-] [sodium orthovanadate],not inhibited

# Tested on: osteoclast cultures
# Conditions: literature background; cited from earlier work
row,Structure (SMILES),inhibition of bone resorption
1,CO/C1=C\C(C)=C\[C@@H](C)[C@@H](O)[C@@H](C)C/C(C)=C/C=C/[C@H](OC)[C@@H]([C@@H](C)[C@@H](O)[C@H](C)[C@@]2(O)C[C@@H](O)[C@H](C)[C@@H](C(C)C)O2)OC1=O [bafilomycin A1],able to inhibit bone resorption

# Tested on: not given
# Conditions: not given
row,melting point,Structure (SMILES)
1,220 °C,"CC1(C)CC(NC(=O)c2ccc(-c3cc4cc(Cl)c(Cl)cc4[nH]3)c(OCc3ccccc3)c2)CC(C)(C)N1 [Example 2, 4-(5,6-Dichloro-1H-indol-2-yl)-3-benzyloxy-N-(2,2,6,6-tetramethylpiperidin-4-yl)-benzamide]"
2,> 250 °C,"CCCOc1cc(C(=O)NC2CC(C)(C)NC(C)(C)C2)ccc1-c1cc2cc(Cl)c(Cl)cc2[nH]1 [Example 4, 4-(5,6-Dichloro-1H-indol-2-yl)-3-propoxy-N-(2,2,6,6-tetramethylpiperidin-4-yl)benzamide]"
3,> 270 °C,"CC1(C)CC(NC(=O)c2ccc(-c3cc4cc(Cl)c(Cl)cc4[nH]3)c(O)c2)CC(C)(C)N1 [Example 3, 4-(5,6-Dichloro-1H-indol-2-yl)-3-hydroxy-N-(2,2,6,6-tetramethylpiperidin-4-yl)-benzamide]"
